Entries after “also recorded” stand apart in the source; their conditions may differ. Read-outs that look alike come from different tables or passages of the source.
Key:
prefrontal cortex = test: Evoked-response potential (ERP) recorded in the prefrontal cortex following electrical stimulation of the ventral subiculum of the hippocampus; format: in vivo, rat; details: for effect on the ERP recorded in the PFC (change from baseline): cognition-enhancing dose 0.5 mg/kg i.p., 0-30 min after administration, 0.5 mg/kg
Excerpt: Male Sprague-Dawley rats (250-350 g) were surgically implanted with 1-4 EEG recording electrodes into the prelimbic region of the PFC (coordinates: A +3.0±1.0 mm; L 0.8±0.3 mm; V −3.0) and a stimulation electrode into the subiculum/CA1 region of the hippocampus (coordinates: A −6.7; L 5.5; V −6.5). EEG signals were referenced to a ground electrode. Electrodes were held in place with acrylic cement and the animals were allowed to recover for 5-10 days prior to the measurements. Animals were provided with free access to food and water during testing.
Animals were tested during daylight hours in a Plexiglas testing chamber (32×32×40 cm) housed in a sound-attenuating chamber. Animals were first habituated to the testing chamber prior to experimentation. Field potentials/EEG signals were amplified and recorded digitally.
ERPs were constructed from peristimulus time histograms. Stimulation intensity that provides a distinct, though not large, ERP (filtered approx. 0.5-150 Hz) was first confirmed from greater than or equal to 50 stimulations that were provided at greater than or equal to 0.1 Hz. Stimulus current (0.1-3.0 mA) from a constant current source was adjusted to produce ERPs that were at least detectable from background electrical activity. Following this calibration of subiculum/CA1 stimulation intensity, ERPs were then collected from one or two 15-minute blocks comprised of a 10-min of hippocampal stimulation period ([…]) followed by 5-minutes of no stimulation. Following baseline recordings, vehicle or a putative cognitive enhancing compound (i.e., psychostimulant such as MPH or other drugs) were administered. ERPs were recorded in 15-min blocks described above for the next 60-90-minutes.
Changes in ERPs were calculated from trial-bin counts used to generate peristimulus time histograms (PSTHs). Data were collected from non-sleep EEG states only, as determined from field potential recordings or in combination with video or other activity measurements. Each PSTH was generated from randomly selected stimulus presentations. Data were expressed as a percentage of baseline ERP activity (pre-vehicle or pre-MPH) and percentage change from saline, which permits comparisons between subjects with different magnitude/shape ERPs.
Appropriate statistical comparisons, including mixed two-way ANOVA with both repeated (time)- and between (treatments)-measures, were used to determine statistical significance of candidate compound-induced changes in PFC. Analyses of ERPs as a function of dose and time and post-hoc comparisons were performed (i.e., Fisher LSD test).

PFC-dependent cognition = details: rats, cited from earlier work
[1] = test system: catecholamine (norepinephrine and dopamine) neurotransmission; details: moderately higher doses that do not improve PFC-dependent cognition; cited from earlier work

COC(=O)C(c1ccccc1)C1CCCCN1 (stereo not shown) [MPH, methylphenidate]
components of the ERP versus pre-treatment recordings (baseline) (prefrontal cortex; 30-60 minute period following drug treatment): a number of components of the ERP were different | effect on the ERP recorded in the PFC (change from baseline) (prefrontal cortex): clearly visible and distinct change from baseline; also recorded: alter the magnitude of specific components of the ERP | effect on the ERP recorded in the PFC (change from baseline) (prefrontal cortex; listed as methylphenidate): significant effects | effect on the ERP recorded in the PFC (prefrontal cortex; higher doses that do not improve PFC-dependent cognition (2.0 mg/kg i.p.)): do not significantly affect this ERP; also recorded: not observed | effect on PFC-dependent cognition (PFC-dependent cognition; 0.5 mg/kg): exerting cognition-enhancing effects | effect on PFC-dependent cognition (PFC-dependent cognition; 2.0 mg/kg): cognition-impairing; also recorded: lacking cognition-enhancing actions | selective targeting of prefrontal cortical catecholamines [1]: not observed

From patent US20090312624A1, “ELECTROPHY[…] FOR COGNITIVE MODULATORS” (priority 2008, published 2009)
